These results are taken from patent US7964531B2, “3-phenoxy-4-pyridazinol derivatives and herbicidal composition containing the same” (Mitsui Chemicals Agro, Inc., priority 2001, dated 2011).

What all share (type): in vivo
For series [1], the system named is transplanted paddy-field rice. Kind of series: Test Example 4: crop injury against transplanted paddy-field rice. The conditions noted are these: after 25 days. The procedure: (§1) Paddy filed soil was filled in 1/5000 are Wagner pot, seeds of barnyardgrass (Echinochloa oryzicola Vasing.), Scirpus joncoides and annual broad-leaved weeds (Lindernia spp. and Rotala indica) which are awaken from dormancy were mixed at the surface layer of 1 cm. Also, tubers of Cyperus serotinus, Sagittaria pygmaea and Eleocharis kuroguwai which are awaken from dormancy were planted, and further seedlings of paddy-field rice at 2.2-leaf stage were transplanted and they were grown under the flooded condition in a greenhouse. After 3 days from the transplanting, a predetermined chemical dosage of the wettable powder prepared in accordance with Preparation example 5 was diluted with water, and applied to the pot. After 25 days, herbicidal effects and crop injury against transplanted paddy-field rice were judged according to the following judgment standard, and the results were shown in Table 5. Incidentally, “-” in the table means a composition containing no effective ingredient.
(§2) Judgment Standard • 0: Growth-inhibition rate; 0 to 15% • 1: Growth inhibition rate; 16 to 35% • 2: Growth inhibition rate; 36 to 55% • 3: Growth inhibition rate; 56 to 75% • 4: Growth inhibition rate; […] • 5: Growth inhibition rate; 96 to 100%.

Series [2] concerns barnyardgrass (Echinochloa oryzicola Vasing.). In words: Test Example 4: herbicidal effects of mixed wettable powder, paddy-field pot test. The conditions noted are these: after 25 days. The procedure:
as §1, §2

Series [3] deals with Cyperus serotinus. The series is described as above. The conditions noted are these: after 25 days. The procedure: as §1, §2
The next series has as its system Sagittaria pygmaea. The series is described as above. The conditions noted are these: after 25 days. The procedure: as §1, §2
The test system of the next series is Eleocharis kuroguwai. The series is described as above. The following applies: after 25 days. The procedure:
as §1, §2

The subject of series [4] is Scirpus joncoides. The series is described as above. The following applies: after 25 days. The procedure: as §1, §2
Series [5] has as its system annual broad-leaved weeds (Lindernia spp. and Rotala indica). The description is as above. The following applies: after 25 days. As for the experimental part:
as §1, §2

Series [6] concerns barnyardgrass (Echinochloa oryzicola Vasing.). In words: Test Example 1: herbicidal effects, paddy-field pot test. The conditions noted are these: wettable powder applied 3 days after transplanting, judged after 25 days. In outline:
(§3)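 Paddy-soil pots sown with weed seeds, germinated Cyperus serotinus tubers and 2.2-leaf rice transplants, kept flooded in a greenhouse. Wettable powder diluted in water applied at set dosage 3 days after transplanting. Weed control and rice injury scored 25 days later on a 0-5 growth-inhibition scale.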

Series [7] relates to Cyperus serotinus. The series is described as above. The conditions noted are these: wettable powder applied 3 days after transplanting, judged after 25 days. In outline: as §3
The subject of series [8] is annual broad-leaved weeds (Lindernia spp., Rotala indica). The series is described as above. The following applies: wettable powder applied 3 days after transplanting, judged after 25 days. A digest of the protocol: as §3
Series [9] deals with Scirpus joncoides. The description is as above. The following applies: wettable powder applied 3 days after transplanting, judged after 25 days. In outline: as §3
Series [10] concerns transplanted paddy-field rice. Kind of series: Test Example 1: crop injury against transplanted paddy-field rice. The conditions noted are these: wettable powder applied 3 days after transplanting, judged after 25 days. In outline: as §3

The structures appear in SMILES notation.

For the compound `Cc1ccc(S(=O)(=O)Oc2c(C(=O)c3ccc(Cl)cc3Cl)c(C)nn2C)cc1` [Compound A, 4-(2,4-dichlorobenzoyl)-1,3-dimethyl-5-pyrazolyl-p-toluenesulfonate, reference compound], the “Crop injury against transplanted rice” value in series [1] (second compound alone 5 g/a) and in series [1] (second compound alone 30 g/a) was 0 (Growth-inhibition rate; 0 to 15%) each time. For the same compound, the “Herbicidal effects Barnyard grass” value in [2] (second compound alone 5 g/a) is reported as 3 (Growth inhibition rate; 56 to 75%); in series [2] (second compound alone 30 g/a), 5 (Growth inhibition rate; 96 to 100%). Besides, the “Herbicidal effects Cyperus serotinus” value is 2 (Growth inhibition rate; 36 to 55%) with Cyperus serotinus [3] (second compound alone 5 g/a) and 4 (Growth inhibition rate; 7.6 to 95%) with Cyperus serotinus [3] (second compound alone 30 g/a). Also, the “Herbicidal effects Sagittaria pygmaea” value with Sagittaria pygmaea (second compound alone 5 g/a) was 4 (Growth inhibition rate; 7.6 to 95%); with Sagittaria pygmaea (second compound alone 30 g/a) it was 5 (Growth inhibition rate; 96 to 100%). For the same compound, the figures for the “Herbicidal effects Eleocharis kuroguwai” value in the series on Eleocharis kuroguwai (second compound alone 5 g/a) and in the series on Eleocharis kuroguwai (second compound alone 30 g/a) were 0 (Growth-inhibition rate; 0 to 15%) and 2 (Growth inhibition rate; 36 to 55%), respectively. Also, the “Herbicidal effects Scirpus joncoides” value is 3 (Growth inhibition rate; 56 to 75%) in the series with Scirpus joncoides [4] (second compound alone 5 g/a) and 4 (Growth inhibition rate; 7.6 to 95%) in the series on Scirpus joncoides [4] (second compound alone 30 g/a). Also, the figures for the “Herbicidal effects Broad leaf” value in [5] (second compound alone 5 g/a) and in series [5] (second compound alone 30 g/a) were 4 (Growth inhibition rate; 7.6 to 95%) and 5 (Growth inhibition rate; 96 to 100%), respectively.

Turning to `Cc1nn(C)c(OCC(=O)c2ccccc2)c1C(=O)c1ccc(Cl)cc1Cl` [Compound B, 2-[4-(2,4-dichlorobenzoyl)-1,3-dimethylpyrazol-5-yloxy]acetophenone, reference compound], the “Crop injury against transplanted rice” value in [1] (second compound alone 5 g/a) and in series [1] (second compound alone 30 g/a) was 0 (Growth-inhibition rate; 0 to 15%) each time. The “Herbicidal effects Barnyard grass” value was 3 (Growth inhibition rate; 56 to 75%) in series [2] (second compound alone 5 g/a) and 5 (Growth inhibition rate; 96 to 100%) in series [2] (second compound alone 30 g/a). The entries for the “Herbicidal effects Cyperus serotinus” value in the series on Cyperus serotinus [3] (second compound alone 5 g/a) and in the series on Cyperus serotinus [3] (second compound alone 30 g/a) were 2 (Growth inhibition rate; 36 to 55%) and 4 (Growth inhibition rate; 7.6 to 95%), respectively. Further, the results for the “Herbicidal effects Sagittaria pygmaea” value with Sagittaria pygmaea (second compound alone 5 g/a) and in the series on Sagittaria pygmaea (second compound alone 30 g/a) were 4 (Growth inhibition rate; 7.6 to 95%) and 5 (Growth inhibition rate; 96 to 100%), respectively. The “Herbicidal effects Eleocharis kuroguwai” value with Eleocharis kuroguwai (second compound alone 5 g/a) is 0 (Growth-inhibition rate; 0 to 15%); with Eleocharis kuroguwai (second compound alone 30 g/a), 2 (Growth inhibition rate; 36 to 55%). The entries for the “Herbicidal effects Scirpus joncoides” value with Scirpus joncoides [4] (second compound alone 5 g/a) and in the series on Scirpus joncoides [4] (second compound alone 30 g/a) were 3 (Growth inhibition rate; 56 to 75%) and 4 (Growth inhibition rate; 7.6 to 95%), respectively. The “Herbicidal effects Broad leaf” value in series [5] (second compound alone 5 g/a) is 4 (Growth inhibition rate; 7.6 to 95%); in series [5] (second compound alone 30 g/a) it was 5 (Growth inhibition rate; 96 to 100%).

For `Cc1ccc(C(=O)COc2c(C(=O)c3c(Cl)ccc(C)c3Cl)c(C)nn2C)cc1` [Compound C, 2-[4-(2,4-dichloro-m-toluoyl)-1,3-dimethylpyrazol-5-yloxy]-4′-methyl-acetophenone, reference compound], the “Crop injury against transplanted rice” value in series [1] (second compound alone 5 g/a) and in series [1] (second compound alone 30 g/a) was 0 (Growth-inhibition rate; 0 to 15%) throughout. For the same compound, the “Herbicidal effects Barnyard grass” value was 3 (Growth inhibition rate; 56 to 75%) in [2] (second compound alone 5 g/a) and 5 (Growth inhibition rate; 96 to 100%) in [2] (second compound alone 30 g/a). In addition, the results for the “Herbicidal effects Cyperus serotinus” value in the series on Cyperus serotinus [3] (second compound alone 5 g/a) and in the series with Cyperus serotinus [3] (second compound alone 30 g/a) were 1 (Growth inhibition rate; 16 to 35%) and 4 (Growth inhibition rate; 7.6 to 95%), respectively. The “Herbicidal effects Sagittaria pygmaea” value in the series with Sagittaria pygmaea (second compound alone 5 g/a) is listed as 4 (Growth inhibition rate; 7.6 to 95%); in the series on Sagittaria pygmaea (second compound alone 30 g/a), 5 (Growth inhibition rate; 96 to 100%). The figures for the “Herbicidal effects Eleocharis kuroguwai” value with Eleocharis kuroguwai (second compound alone 5 g/a) and in the series with Eleocharis kuroguwai (second compound alone 30 g/a) were 0 (Growth-inhibition rate; 0 to 15%) and 2 (Growth inhibition rate; 36 to 55%), respectively. In addition, the entries for the “Herbicidal effects Scirpus joncoides” value in the series on Scirpus joncoides [4] (second compound alone 5 g/a) and in the series with Scirpus joncoides [4] (second compound alone 30 g/a) were 2 (Growth inhibition rate; 36 to 55%) and 4 (Growth inhibition rate; 7.6 to 95%), respectively. Further, the “Herbicidal effects Broad leaf” value in [5] (second compound alone 5 g/a) and in series [5] (second compound alone 30 g/a) was 5 (Growth inhibition rate; 96 to 100%) each time.

With `CCCS(=O)(=O)Oc1cc(Cl)nnc1Oc1ccccc1C1CC1` [Example 360], the entries for the “Herbicidal effects Barnyard grass” value in series [6] (chemical dosage 10 g/a) and in [6] (chemical dosage 20 g/a) were 3 (Growth inhibition rate; 51 to 70%) and 4 (Growth inhibition rate; 71 to 90%), respectively. For the same compound, the “Herbicidal effects Cyperus serotinus” value in the series on Cyperus serotinus [7] (chemical dosage 10 g/a) and with Cyperus serotinus [7] (chemical dosage 20 g/a) was 5 (Growth inhibition rate; 91 to 100%) in each case. Further, the “Herbicidal effects Broad leaf” value in [8] (chemical dosage 10 g/a) and in series [8] (chemical dosage 20 g/a) was 5 (Growth inhibition rate; 91 to 100%) each time. For the same compound, the “Herbicidal effects Scirpus joncoides” value with Scirpus joncoides [9] (chemical dosage 10 g/a) and in the series on Scirpus joncoides [9] (chemical dosage 20 g/a) was 5 (Growth inhibition rate; 91 to 100%) in each case. Moreover, the “Crop injury against transplanted rice” value in series [10] (chemical dosage 10 g/a) and in series [10] (chemical dosage 20 g/a) was 0 (Growth inhibition rate; 0 to 10%) throughout.

For `CCCS(=O)(=O)Oc1cc(Cl)nnc1Oc1cccc2c1CCC2` [Example 361], the results for the “Herbicidal effects Barnyard grass” value in series [6] (chemical dosage 10 g/a) and in series [6] (chemical dosage 20 g/a) were 2 (Growth inhibition rate; 31 to 50%) and 3 (Growth inhibition rate; 51 to 70%), respectively. The results for the “Herbicidal effects Cyperus serotinus” value with Cyperus serotinus [7] (chemical dosage 10 g/a) and in the series with Cyperus serotinus [7] (chemical dosage 20 g/a) were 4 (Growth inhibition rate; 71 to 90%) and 5 (Growth inhibition rate; 91 to 100%), respectively. Besides, the “Herbicidal effects Broad leaf” value in [8] (chemical dosage 10 g/a) and in [8] (chemical dosage 20 g/a) was 5 (Growth inhibition rate; 91 to 100%) in each case. Further, the “Herbicidal effects Scirpus joncoides” value with Scirpus joncoides [9] (chemical dosage 10 g/a) and in the series with Scirpus joncoides [9] (chemical dosage 20 g/a) was 5 (Growth inhibition rate; 91 to 100%) in each case. Further, the “Crop injury against transplanted rice” value in series [10] (chemical dosage 10 g/a) and in series [10] (chemical dosage 20 g/a) was 0 (Growth inhibition rate; 0 to 10%) throughout.

For `O=S(=O)(Oc1cc(Cl)nnc1Oc1ccccc1C1CC1)c1ccccc1` [Example 365], the “Herbicidal effects Barnyard grass” value in series [6] (chemical dosage 10 g/a) is reported as 2 (Growth inhibition rate; 31 to 50%); in series [6] (chemical dosage 20 g/a), 3 (Growth inhibition rate; 51 to 70%). In addition, the “Herbicidal effects Cyperus serotinus” value in the series with Cyperus serotinus [7] (chemical dosage 10 g/a) and with Cyperus serotinus [7] (chemical dosage 20 g/a) was 5 (Growth inhibition rate; 91 to 100%) throughout. Further, the “Herbicidal effects Broad leaf” value in [8] (chemical dosage 10 g/a) and in series [8] (chemical dosage 20 g/a) was 5 (Growth inhibition rate; 91 to 100%) in each case. The “Herbicidal effects Scirpus joncoides” value in the series on Scirpus joncoides [9] (chemical dosage 10 g/a) is recorded as 4 (Growth inhibition rate; 71 to 90%); in the series with Scirpus joncoides [9] (chemical dosage 20 g/a), 5 (Growth inhibition rate; 91 to 100%). Also, the “Crop injury against transplanted rice” value in [10] (chemical dosage 10 g/a) and in series [10] (chemical dosage 20 g/a) was 0 (Growth inhibition rate; 0 to 10%) each time.

On to `O=[N+]([O-])c1ccc(S(=O)(=O)Oc2cc(Cl)nnc2Oc2ccccc2C2CC2)cc1` [Example 394], for which the “Herbicidal effects Barnyard grass” value in series [6] (chemical dosage 10 g/a) is on record as 2 (Growth inhibition rate; 31 to 50%); in series [6] (chemical dosage 20 g/a) it was 3 (Growth inhibition rate; 51 to 70%). Besides, the “Herbicidal effects Cyperus serotinus” value in the series with Cyperus serotinus [7] (chemical dosage 10 g/a) and in the series with Cyperus serotinus [7] (chemical dosage 20 g/a) was 5 (Growth inhibition rate; 91 to 100%) in each case. For the same compound, the “Herbicidal effects Broad leaf” value in series [8] (chemical dosage 10 g/a) and in series [8] (chemical dosage 20 g/a) was 5 (Growth inhibition rate; 91 to 100%) throughout. The “Herbicidal effects Scirpus joncoides” value in the series on Scirpus joncoides [9] (chemical dosage 10 g/a) was 4 (Growth inhibition rate; 71 to 90%); in the series with Scirpus joncoides [9] (chemical dosage 20 g/a), 5 (Growth inhibition rate; 91 to 100%). The “Crop injury against transplanted rice” value in series [10] (chemical dosage 10 g/a) and in series [10] (chemical dosage 20 g/a) was 0 (Growth inhibition rate; 0 to 10%) throughout.
